In patent publication US6737383B1, “Herbicidal oxadiazolidines” (priority 1999, dated 2004):

How the values were obtained:
sugar beet = assay: Test B pre/postemergence sugar beet; format: in vivo, Beta vulgaris
Method in brief: (§1)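 Test chemicals in a non-phytotoxic solvent mixture with surfactant were sprayed preemergence onto planted seeds and postemergence onto plants 2 to 18 cm tall (1- to 4-leaf stage). After twelve to sixteen days in a greenhouse, injury was visually rated against untreated controls from 0 (no effect) to 10 (complete control).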

bamyardgrass = assay: Test B flood test barnyardgrass; format: in vivo, Echinochloa crus-galli; details: for Plant response rating, Barnyardgrass (0 to 10 scale, 0 is no effect, 10 is complete control) / Barnyardgrass plant response rating (0 to 10 scale, 0 is no effect, 10 is complete control): visual evaluation after twelve to sixteen days; for Barnyardgrass plant response rating (0 to 10 scale, 0 is no effect, 10 is complete control): under heading Pre-emergence
Method in brief: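 Each value is a visual injury score relative to controls, with 10 meaning complete control and 0 no effect. Evaluation took place twelve to sixteen days after the 2-leaf-stage plants were treated and kept in the greenhouse.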

cocklebur = assay: Test B pre/postemergence cocklebur; format: in vivo, Xanthium strumarium
Method in brief: as §1

rape = assay: Test B pre/postemergence rape; format: in vivo, Brassica napus
Method in brief: as §1

[1] = Postemergence, Rate 125 g/ha, scale 0 to 10, 0 is no effect, 10 is complete control
[2] = Preemergence, Rate 62 g/ha, scale of 0 to 10 where 0 is no effect and 10 is complete control
[3] = Preemergence, Rate 250 g/ha, scale of 0 to 10 where 0 is no effect and 10 is complete control
[4] = Preemergence, Rate 500 g/ha, scale of 0 to 10 where 0 is no effect and 10 is complete control
[5] = Rate 62 g/ha, Postemergence, scale 0 to 10 (0 no effect, 10 complete control)
[6] = Rate 500 g/ha, Postemergence, scale 0 to 10, 0 no effect, 10 complete control
[7] = Postemergence, Rate 62 g/ha, scale 0 to 10, 0 is no effect, 10 is complete control
[8] = Postemergence, Rate 125 g/ha, scale of 0 to 10 where 0 is no effect and 10 is complete control
[9] = Preemergence, Rate 125 g/ha, scale of 0 to 10 where 0 is no effect and 10 is complete control
[10] = Preemergence, Rate 250 g/ha, scale 0 to 10 (0 no effect, 10 complete control)
[11] = Rate 500 g/ha, Postemergence, scale 0 to 10, 0 is no effect, 10 is complete control
[12] = Rate 62 g/ha, flood test species, Pre-emergence
[13] = Rate 125 g/ha, flood test species
[14] = Rate 250 g/ha, Pre-emergence (flood test species), scale 0 to 10, 0 is no effect, 10 is complete control
[15] = Rate 500 g/ha, Pre-emergence section of Table B, 0 to 10 scale (0 no effect, 10 complete control)
[16] = Postemergence, Rate 250 g/ha, scale of 0 to 10, 0 is no effect, 10 is complete control
[17] = Postemergence, Rate 500 g/ha, scale of 0 to 10 where 0 is no effect and 10 is complete control
[18] = Preemergence, Rate 62 g/ha, scale 0 to 10 (0 no effect, 10 complete control)
[19] = Postemergence, Rate 250 g/ha, scale 0 to 10, 0 no effect, 10 complete control
[20] = Preemergence, Rate 62 g/ha, scale 0 to 10, 0 is no effect, 10 is complete control
[21] = Preemergence, Rate 125 g/ha, scale 0 to 10 (0 no effect, 10 complete control)
[22] = Preemergence, Rate 500 g/ha, scale 0 (no effect) to 10 (complete control)
[23] = Rate 125 g/ha, Postemergence, scale 0 to 10, 0 no effect, 10 complete control
[24] = Rate 500 g/ha, Postemergence, 0 to 10 scale (0 no effect, 10 complete control)

CC(C)N(C(=O)n1oc(=O)n(-c2ccc3ccccc3c2)c1=O)c1ccc(Cl)cc1 [Compound 333]
Plant response rating, Sugarbeets (sugar beet; [1]): 0 | Sugarbeets plant response rating (sugar beet; [2]): 0 | Sugarbeets plant response rating (0 to 10 scale) (sugar beet; Preemergence, Rate 125 g/ha): 0 | Sugarbeets plant response rating (sugar beet; [3]): 0 | Sugarbeets plant response rating (sugar beet; [4]): 0 | Sugarbeets plant response rating (sugar beet; [5]): 0 | Plant response rating, Sugarbeets (sugar beet; [6]): 0 | Barnyardgrass plant response rating (bamyardgrass; Pre-emergence, Rate 1000 g/ha, scale 0 to 10 (0 no effect, 10 complete control)): 0 | Barnyardgrass plant response rating (bamyardgrass; Rate 125 g/ha, Pre-emergence, flood test species, scale 0 to 10 where 0 is no effect and 10 is complete control): 0 | Barnyardgrass plant response rating (bamyardgrass; Rate 250 g/ha, Pre-emergence, flood-test species, scale 0 to 10, 0 is no effect, 10 is complete control): 0 | Barnyardgrass plant response rating (bamyardgrass; Rate 500 g/ha, Pre-emergence, flood test species, scale 0 to 10 (0 no effect, 10 complete control)): 0 | Plant response rating, Cocklebur (cocklebur; [1]): 0 | Cocklebur plant response rating (cocklebur; [2]): 0 | Cocklebur plant response rating (0 to 10 scale) (cocklebur; Preemergence, Rate 125 g/ha): 0 | Cocklebur plant response rating (cocklebur; [3]): 0 | Cocklebur plant response rating (cocklebur; [4]): 0 | Cocklebur plant response rating (cocklebur; [5]): 0 | Plant response rating, Cocklebur (cocklebur; [6]): 0 | Plant response rating, Rape (rape; [1]): 0 | Rape plant response rating (rape; [2]): 0 | Rape plant response rating (0 to 10 scale) (rape; Preemergence, Rate 125 g/ha): 0 | Rape plant response rating (rape; [3]): 0 | Rape plant response rating (rape; [4]): 0 | Rape plant response rating (rape; [5]): 0 | Plant response rating, Rape (rape; [6]): 0

CC[C@H](C)n1c(=O)on(C(=O)N(c2ccc(Cl)cc2)C(C)C)c1=O [Compound 664]
Plant response rating, Sugarbeets (sugar beet; [7]): 0 | Sugarbeets plant response rating (sugar beet; [8]): 0 | Sugarbeets plant response rating (sugar beet; [2]): 0 | Sugarbeets plant response rating (sugar beet; [9]): 0 | Plant response rating, Sugarbeets (sugar beet; [10]): 0 | Plant response rating, Sugarbeets (sugar beet; [4]): 5 | Sugarbeets plant response rating (sugar beet; [11]): 0 | Plant response rating, Barnyardgrass (0 to 10 scale, 0 is no effect, 10 is complete control) (bamyardgrass; [12]): 0 | Barnyardgrass plant response rating (0 to 10 scale, 0 is no effect, 10 is complete control) (bamyardgrass; [13]): 0 | Barnyardgrass plant response rating (bamyardgrass; [14]): 0 | Barnyardgrass plant response rating (bamyardgrass; [15]): 0 | Plant response rating, Cocklebur (cocklebur; [7]): 0 | Cocklebur plant response rating (cocklebur; [8]): 0 | Cocklebur plant response rating (cocklebur; [16]): 2 | Cocklebur plant response rating (cocklebur; [2]): 0 | Cocklebur plant response rating (cocklebur; [9]): 0 | Plant response rating, Cocklebur (cocklebur; [10]): 0 | Plant response rating, Cocklebur (cocklebur; [4]): 3 | Cocklebur plant response rating (cocklebur; [11]): 6 | Plant response rating, Rape (rape; [7]): 0 | Rape plant response rating (rape; [8]): 0 | Rape plant response rating (rape; [2]): 0 | Rape plant response rating (rape; [9]): 1 | Plant response rating, Rape (rape; [10]): 1 | Plant response rating, Rape (rape; [4]): 6 | Rape plant response rating (rape; [11]): 3

C=C(Cl)Cn1c(=O)on(C(=O)N(c2ccc(F)cc2F)C(C)C)c1=O [Compound 634]
Plant response rating, Sugarbeets (sugar beet; [7]): 0 | Plant response rating, Sugarbeets (sugar beet; [8]): 0 | Sugarbeets plant response rating (sugar beet; [16]): 0 | Sugarbeets plant response rating (sugar beet; [2]): 0 | Sugarbeets plant response rating (sugar beet; [9]): 0 | Plant response rating, Sugarbeets (sugar beet; [10]): 5 | Plant response rating, Sugarbeets (sugar beet; [4]): 6 | Plant response rating, Barnyardgrass (0 to 10 scale, 0 is no effect, 10 is complete control) (bamyardgrass; [12]): 0 | Barnyardgrass plant response rating (0 to 10 scale, 0 is no effect, 10 is complete control) (bamyardgrass; [13]): 0 | Barnyardgrass plant response rating (bamyardgrass; [14]): 0 | Barnyardgrass plant response rating (bamyardgrass; [15]): 0 | Plant response rating, Cocklebur (cocklebur; [7]): 1 | Plant response rating, Cocklebur (cocklebur; [8]): 1 | Cocklebur plant response rating (cocklebur; [16]): 2 | Plant response rating, Cocklebur (cocklebur; [17]): 2 | Cocklebur plant response rating (cocklebur; [2]): 0 | Cocklebur plant response rating (cocklebur; [9]): 0 | Plant response rating, Cocklebur (cocklebur; [10]): 0 | Plant response rating, Cocklebur (cocklebur; [4]): 0 | Plant response rating, Rape (rape; [7]): 0 | Plant response rating, Rape (rape; [8]): 0 | Rape plant response rating (rape; [16]): 0 | Plant response rating, Rape (rape; [17]): 0 | Rape plant response rating (rape; [2]): 0 | Rape plant response rating (rape; [9]): 2 | Plant response rating, Rape (rape; [10]): 6 | Plant response rating, Rape (rape; [4]): 7

CC(C)N(C(=O)n1oc(=O)n(CSC#N)c1=O)c1ccc(F)cc1 [Compound 618]
Plant response rating, Sugarbeets (sugar beet; [7]): 0 | Plant response rating, Sugarbeets (sugar beet; [8]): 0 | Sugarbeets plant response rating (sugar beet; [16]): 0 | Sugarbeets plant response rating (sugar beet; [18]): 0 | Sugarbeets plant response rating (sugar beet; [9]): 0 | Plant response rating, Sugarbeets (sugar beet; [10]): 0 | Plant response rating, Sugarbeets (sugar beet; [4]): 0 | Plant response rating, Barnyardgrass (0 to 10 scale, 0 is no effect, 10 is complete control) (bamyardgrass; [12]): 0 | Barnyardgrass plant response rating (0 to 10 scale, 0 is no effect, 10 is complete control) (bamyardgrass; [13]): 0 | Barnyardgrass plant response rating (bamyardgrass; [14]): 0 | Barnyardgrass plant response rating (bamyardgrass; [15]): 0 | Plant response rating, Cocklebur (cocklebur; [7]): 0 | Cocklebur plant response rating (cocklebur; [16]): 0 | Plant response rating, Cocklebur (cocklebur; [17]): 0 | Cocklebur plant response rating (cocklebur; [18]): 0 | Cocklebur plant response rating (cocklebur; [9]): 0 | Plant response rating, Cocklebur (cocklebur; [4]): 0 | Plant response rating, Rape (rape; [7]): 0 | Plant response rating, Rape (rape; [8]): 0 | Rape plant response rating (rape; [16]): 0 | Plant response rating, Rape (rape; [17]): 0 | Rape plant response rating (rape; [18]): 0 | Rape plant response rating (rape; [9]): 0 | Plant response rating, Rape (rape; [10]): 0 | Plant response rating, Rape (rape; [4]): 0

Cc1ccccc1-n1c(=O)on(C(=O)N(c2ccc([N+](=O)[O-])cc2)C(C)C)c1=O [Compound 44]
Sugarbeets plant response rating (sugar beet; [7]): 0 | Sugarbeets plant response rating (sugar beet; [19]): 0 | Plant response rating, Sugarbeets (sugar beet; [20]): 0 | Plant response rating, Sugarbeets (sugar beet; [21]): 0 | Plant response rating, Sugarbeets (sugar beet; [3]): 0 | Sugarbeets plant response rating (sugar beet; [22]): 0 | Sugarbeets plant response rating (sugar beet; [23]): 0 | Barnyardgrass plant response rating (bamyardgrass; [7]): 0 | Barnyardgrass plant response rating (bamyardgrass; Rate 125 g/ha, Postemergence section (flood test species), scale 0 to 10, 0 no effect, 10 complete control): 0 | Barnyardgrass plant response rating (bamyardgrass; Rate 500 g/ha, Postemergence section of Table B, 0 to 10 scale (0 no effect, 10 complete control)): 0 | Barnyardgrass plant response rating (bamyardgrass; flood test, listed under Postemergence, Rate 250 g/ha, scale 0 to 10, 0 no effect, 10 complete control): 0 | Cocklebur plant response rating (cocklebur; [7]): 0 | Cocklebur plant response rating (cocklebur; [19]): 0 | Plant response rating, Cocklebur (cocklebur; [20]): 0 | Plant response rating, Cocklebur (cocklebur; [3]): 0 | Cocklebur plant response rating (cocklebur; [22]): 0 | Cocklebur plant response rating (cocklebur; [23]): 0 | Cocklebur plant response rating (cocklebur; [24]): 0 | Rape plant response rating (rape; [7]): 0 | Rape plant response rating (rape; [19]): 0 | Plant response rating, Rape (rape; [20]): 0 | Plant response rating, Rape (rape; [21]): 0 | Plant response rating, Rape (rape; [3]): 0 | Rape plant response rating (rape; [22]): 0 | Rape plant response rating (rape; [23]): 0 | Rape plant response rating (rape; [24]): 0
